The values below come from ChEMBL document CHEMBL1153106, “Thyroid receptor agonists for the treatment of androgenetic alopecia” (Bioorg Med Chem Lett, 2010).

Calls of active or inactive are those of the source. No cut-off for these calls is given here. A value given as a limit tells only on which side of the number the result lay.

Data set [1] has as its target T1, Thyroid hormone receptor beta (Homo sapiens, UniProt P10828).
T1 sequence (P10828 whole entry): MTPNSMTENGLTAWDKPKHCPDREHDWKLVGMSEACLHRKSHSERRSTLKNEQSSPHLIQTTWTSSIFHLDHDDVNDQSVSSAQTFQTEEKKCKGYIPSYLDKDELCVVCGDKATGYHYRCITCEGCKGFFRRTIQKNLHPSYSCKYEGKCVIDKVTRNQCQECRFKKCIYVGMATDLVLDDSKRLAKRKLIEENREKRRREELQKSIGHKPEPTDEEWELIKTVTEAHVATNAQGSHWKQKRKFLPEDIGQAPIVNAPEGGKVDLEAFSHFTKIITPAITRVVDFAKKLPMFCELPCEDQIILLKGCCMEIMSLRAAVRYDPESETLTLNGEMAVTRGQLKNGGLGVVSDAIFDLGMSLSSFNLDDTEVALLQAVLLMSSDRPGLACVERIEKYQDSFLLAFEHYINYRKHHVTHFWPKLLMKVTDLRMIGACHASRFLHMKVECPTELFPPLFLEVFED
Kind of data set: Binding affinity to thyroid receptor beta.

The target of data set [2] is T2, Thyroid hormone receptor alpha (Homo sapiens, UniProt P10827).
T2 sequence (P10827 whole entry): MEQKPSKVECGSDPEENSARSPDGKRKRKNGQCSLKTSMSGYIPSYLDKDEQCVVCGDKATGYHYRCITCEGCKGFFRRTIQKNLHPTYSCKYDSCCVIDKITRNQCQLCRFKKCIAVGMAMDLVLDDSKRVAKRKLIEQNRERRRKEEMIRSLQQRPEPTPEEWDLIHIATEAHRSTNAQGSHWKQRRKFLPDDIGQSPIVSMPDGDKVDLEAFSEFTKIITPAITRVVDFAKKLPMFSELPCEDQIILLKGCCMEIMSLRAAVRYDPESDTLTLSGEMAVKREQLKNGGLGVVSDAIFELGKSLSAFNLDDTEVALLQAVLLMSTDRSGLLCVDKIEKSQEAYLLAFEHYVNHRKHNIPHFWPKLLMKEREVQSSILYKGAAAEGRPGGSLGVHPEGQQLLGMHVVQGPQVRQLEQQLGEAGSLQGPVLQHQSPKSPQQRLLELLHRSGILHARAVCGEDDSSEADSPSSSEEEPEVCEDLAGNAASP
Kind of data set: Binding affinity to thyroid receptor alpha.

Data set [3] relates to Mus musculus. Nature of the data set: Hair growth stimulatory activity in C3H/HeN mouse treated 5 days a week topically to shaved lower back twice daily for 4 weeks. The class given is functional.
The species entered for the next data set is Macaca arctoides. Nature of the data set: Hair growth stimulatory activity in bal stump-tailed monkey model. The class given is functional.
The target of another data set is T3, Thyroid hormone receptor (Homo sapiens, UniProt P10827+P10828).
T3 sequence (P10827 whole entry): T2 sequence (P10827 whole entry)
T3 sequence (P10828 whole entry): T1 sequence (P10828 whole entry)
Nature of the data set: Binding affinity to thyroid hormone receptor in human HepG2 cells.

Data set [4] concerns Mus musculus. Kind of data set: Ratio of drug to minoxidil MED for hair growth stimulatory activity in female C3H/HeN mouse at 1 mg/mL, treated topically to shaved lower back as single dose. The class given is functional, organism-based.
Data set [5] deals with Mus musculus. Kind of data set: Ratio of drug to minoxidil MED for hair growth stimulatory activity in female C3H/HeN mouse at 0.1 mg/mL, treated topically to shaved lower back as single dose. The class given is functional, organism-based.
Data set [6] can be described thus: Metabolic stability in rat liver microsomes. Type of data set: ADME, Microsome. On the technique in general: Liver microsomes are a subcellular fraction often used to study metabolism.
The nature of data set [7]: Half life in rat hepatocytes. The class given is ADME, cell-based, Liver, Hepatocyte.
Data set [8] is described as follows: Clearance in rat blood. Type of data set: ADME, organism-based.
Data set [9] can be described thus: Intrinsic clearance in rat. Type of data set: ADME, organism-based. The settings on record: not recorded.
A short description of data set [10]: Metabolic stability in […] human liver microsomes. Type of data set: ADME, Microsome.
The nature of data set [11]: Half life in human hepatocytes. Type of data set: ADME, cell-based, Liver, Hepatocyte.
Data set [12] is described as follows: Clearance in human blood. The class given is ADME, organism-based.
Data set [13] can be described thus: Intrinsic clearance in human. The class given is ADME, organism-based. The settings on record: not recorded.
Data set [14] can be described thus: Plasma clearance in rat at 0.5 mg/kg, iv. The class given is ADME, organism-based. Details: dose 0.5 mg/kg, route intravenous.
A further data set concerns Rattus norvegicus. Nature of the data set: Apparent volume of distribution at steady state in rat at 0.5 mg/kg, iv. The note with it: in vivo. Set-up: dose 0.5 mg/kg, route intravenous. The class given is ADME, organism-based.
Data set [15] in a line: Terminal half life in rat at 0.5 mg/kg, iv. The class given is ADME, organism-based. Details: dose 0.5 mg/kg, route intravenous. The settings on record: in vivo, read-out: beta t1/2 (converted).
For data set [16], the system named is Zone of skin. Nature of the data set: Effect on transepidermal penetration in human cadaver skin assessed as maximal penetration rate after 28 hrs using Franz diffusion chamber. The class given is functional.
Data set [17] deals with Zone of skin. Kind of data set: Effect on transepidermal penetration in human cadaver skin assessed as total penetration after 40 hrs using Franz diffusion chamber. Type of data set: functional.
In data set [18] the test system is Zone of skin. Nature of the data set: Effect on transepidermal penetration in human cadaver skin assessed as drug distributed to dermis after 40 hrs using Franz diffusion chamber. The class given is functional.
In data set [19] the test system is Zone of skin. Kind of data set: Effect on transepidermal penetration in human cadaver skin assessed as drug distributed to epidermis after 40 hrs using Franz diffusion chamber. The class given is functional.
For the next data set, the system named is NIH3T3. Kind of data set: Phototoxicity in mouse 3T3 cells by neutral red uptake assay. Type of data set: cell-based.
The nature of data set [20]: Drug level in bald stump-tailed monkey model after 2 months. The note with it: macaca arctoides, in vivo; read-out: Drug uptake. Type of data set: ADME, organism-based.
The nature of data set [21]: Drug level in bald stump-tailed monkey model after 3 months. The note with it: macaca arctoides, in vivo; read-out: Drug uptake. The class given is ADME, organism-based.
A short description of data set [22]: Drug level in bald stump-tailed monkey model after 4 months. The class given is ADME, organism-based. The note with it: macaca arctoides, in vivo; read-out: Drug uptake.
Data set [23] is described as follows: Toxicity in bald stump-tailed monkey skin after 4 months. The class given is tissue-based, Zone of skin. The note with it: macaca arctoides, in vivo, 2922 h.

`O=C(c1cc(Oc2c(Cl)cc(-n3ncc(=O)[nH]c3=O)cc2Cl)ccc1O)N1CCc2ccccc2C1`: the Ki (as a rule, the dissociation constant of the complex between target and ligand, obtained from inhibition or displacement) in [1] amounted to 2 nM; in data set [2], 126 nM. In the data set with Mus musculus [3], the MED worked out at 0.1%.
Turning to `Cc1cc(NC(=O)C(=O)O)cc(C)c1Oc1ccc(O)c2c1CCC2`, the values for the Ki in data set [1] and in [2] were 0.5 nM and 0.7 nM, respectively. The same molecule registered an MED in the data set with Mus musculus [3] of 1%.
As to `Cc1cc(NC(=O)CC(=O)O)cc(Cl)c1Oc1ccc(O)c(S(=O)(=O)CC2CCC2)c1`, the Ki in [1] came to 0.5 nM; in data set [2], 2.1 nM. The same molecule showed an MED with Mus musculus [3] of 0.1%.
Turning to `Nc1cc(N2CCCCC2)nc(N)[n+]1[O-]` [MINOXIDIL], the values for the MED in the data set with Mus musculus [3] and in the data set filed under Macaca arctoides were 2.5% and 2%, respectively.
Regarding `O=C(c1cc(Oc2c(Cl)cc(-n3ncc(=O)[nH]c3=O)cc2Cl)ccc1O)N1CCCCC1`, the Ki in data set [1] worked out at 1 nM; in data set [2], 20 nM. In addition, the MED in the data set with Mus musculus [3] is 0.1%.
`Cc1cc(-n2ncc(=O)[nH]c2=O)cc(C)c1Oc1ccc(O)c(Cc2ccc(F)cc2)c1`: the values for the Ki in data set [1] and in data set [2] were 0.4 nM and 3 nM, respectively. In addition, the MED worked out at 0.003% in the data set on Mus musculus [3] and 0.1% in the data set listed under Macaca arctoides. At Thyroid hormone receptor, the EC50 (in general, the concentration giving half of the maximal effect) turned out to be 0.5 nM. The outcome with Mus musculus [4] and in the data set with Mus musculus [5] was Active. The half-life in data set [6] was 40 min; in data set [7] it was 45 min; in [10], 39 min; in data set [11] it was 119 min; in data set [15] it was 164 min. For the same molecule, the clearance (usually the volume of plasma or blood freed of the substance per unit of time) came to 51 mL/min/kg in data set [8], 15 mL/min/kg in data set [12] and 40 mL/min/kg in data set [14]. The values for the CLint scaled in data set [9] and in [13] were 149 mL/min/kg and 29 mL/min/kg, respectively. Also, the Vdss(app) in the data set on Rattus norvegicus is 4.88 L/kg. In addition, the Activity with Zone of skin [16] is listed as 0.14 microg/cm2/h; in the data set with Zone of skin [17], 6.17%; with Zone of skin [18] it was 0.58%; in the data set with Zone of skin [19] it was 9.88%; with NIH3T3, “Non-toxic”; in data set [23] it was “Non-toxic”. Besides, in [20], the concentration at 1461 h is below 2 ng/mL. Moreover, the concentration at 2191.5 h in data set [21] was below 1 ng/mL. Moreover, the concentration at 2922 h in data set [22] is below 1 ng/mL.
`O=c1cnn(-c2cc(Cl)c(Oc3ccc(O)c(Cc4ccc(F)cc4)c3)c(Cl)c2)c(=O)[nH]1`: the Ki was 0.51 nM in [1] and 8 nM in [2]. In addition, the MED in the data set on Mus musculus [3] turned out to be 0.01%.
